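Where inhibition never reached the appropriate level, the endpoint shown equals the highest concentration tested. Otherwise, values were interpolated linearly from a five-concentration, 48-hour dose response in 96-well plates. TGI is the concentration that stops growth completely.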
Columns and labels:
Assay in all cases: growth of human tumour cells (NCI), 48 h
[1] = tested on: RXF-631 renal
[2] = tested on: M19-MEL melanoma
[3] = tested on: OVCAR-5 ovarian
[4] = tested on: SNB-78 CNS
[5] = tested on: XF 498 CNS
[6] = tested on: CAKI-1 renal
[7] = tested on: A549 NSCLC
[8] = tested on: OVCAR-3 ovarian
[9] = tested on: RPMI-8226 leukemia
[10] = tested on: SK-MEL-28 melanoma
[11] = tested on: EKVX NSCLC
[12] = tested on: U251 CNS
[13] = tested on: HCT-116 colon
[14] = tested on: CCRF-CEM leukemia
[15] = tested on: OVCAR-8 ovarian
[16] = tested on: HCC-2998 colon
[17] = tested on: COLO 205 colon
[18] = tested on: HCT-15 colon
[19] = tested on: SK-MEL-5 melanoma
[20] = tested on: SNB-19 CNS
[21] = tested on: SW-620 colon
[22] = tested on: NCI-H23 lung
[23] = tested on: LOX IMVI melanoma
[24] = tested on: OVCAR-4 ovarian
[25] = tested on: DMS 273 small cell lung
[26] = tested on: 786-0 renal
[27] = tested on: SF-268 CNS
[28] = tested on: ACHN renal
[29] = tested on: NCI-H460 lung
[30] = tested on: M14 melanoma
[31] = tested on: DLD-1 colon
[32] = tested on: MALME-3M melanoma
[33] = tested on: HOP-18 NSCLC
[34] = tested on: HT29 colon
[35] = tested on: NCI-H226 lung
[36] = tested on: UACC-257 melanoma
[37] = tested on: SK-MEL-2 melanoma
[38] = tested on: K-562 leukemia
[39] = tested on: HOP-92 NSCLC
[40] = tested on: TK-10 renal
[41] = tested on: IGROV1 ovarian
[42] = tested on: KM20L2 colon
[43] = tested on: SK-OV-3 ovarian
[44] = tested on: DMS 114 small cell lung
[45] = tested on: UO-31 renal
[46] = tested on: UACC-62 melanoma
[47] = tested on: KM12 colon
[48] = tested on: SNB-75 CNS
[49] = tested on: SF-539 CNS
[50] = tested on: SN12C renal
[51] = tested on: HOP-62 NSCLC
[52] = tested on: SF-295 CNS
[53] = tested on: A498 renal
[54] = tested on: SR leukemia
[55] = tested on: HL-60(TB) leukemia
[56] = tested on: LXFL 529 NSCLC
[57] = tested on: MOLT-4 leukemia
[58] = tested on: NCI-H522 lung
[59] = tested on: RXF 393 renal

O=c1c2cc(Br)cc(Br)c2[nH]c(=S)n1-c1ccccc1
TGI [1]: > 100 µM
TGI [2]: > 100 µM
TGI [3]: > 100 µM
TGI [4]: > 100 µM
TGI [5]: 78.9 µM
TGI [6]: > 100 µM
TGI [7]: > 100 µM
TGI [8]: > 100 µM
TGI [9]: > 100 µM
TGI [10]: > 100 µM
TGI [11]: > 100 µM
TGI [12]: > 100 µM
TGI [13]: > 100 µM
TGI [14]: > 100 µM
TGI [15]: > 100 µM
TGI [16]: > 100 µM
TGI [17]: > 100 µM
TGI [18]: > 100 µM
TGI [19]: > 100 µM
TGI [20]: > 100 µM
TGI [21]: > 100 µM
TGI [22]: > 100 µM
TGI [23]: > 100 µM
TGI [24]: > 100 µM
TGI [25]: > 100 µM
TGI [26]: > 100 µM
TGI [27]: > 100 µM
TGI [28]: > 100 µM
TGI [29]: > 100 µM
TGI [30]: > 100 µM
TGI [31]: > 100 µM
TGI [32]: > 100 µM
TGI [33]: > 100 µM
TGI [34]: > 100 µM
TGI [35]: > 100 µM
TGI [36]: > 100 µM
TGI [37]: > 100 µM
TGI [38]: > 100 µM
TGI [39]: > 100 µM
TGI [40]: > 100 µM
TGI [41]: > 100 µM
TGI [42]: > 100 µM
TGI [43]: > 100 µM
TGI [44]: > 100 µM
TGI [45]: > 100 µM
TGI [46]: > 100 µM
TGI [47]: > 100 µM
TGI [48]: > 100 µM
TGI [49]: > 100 µM
TGI [50]: > 100 µM
TGI [51]: > 100 µM
TGI [52]: > 100 µM
TGI [53]: > 100 µM

N#CC(C#N)=CSc1ccccc1
TGI [1]: > 100 µM
TGI [3]: 68.9 µM
TGI [54]: > 100 µM
TGI [5]: > 100 µM
TGI [6]: 74.1 µM
TGI [7]: > 100 µM
TGI [8]: > 100 µM
TGI [55]: > 100 µM
TGI [9]: > 100 µM
TGI [10]: 81.1 µM
TGI [11]: > 100 µM
TGI [12]: 52.4 µM
TGI [13]: 76.3 µM
TGI [14]: > 100 µM
TGI [56]: > 100 µM
TGI [15]: 37.1 µM
TGI [17]: 55.3 µM
TGI [18]: > 100 µM
TGI [19]: > 100 µM
TGI [20]: > 100 µM
TGI [21]: > 100 µM
TGI [22]: > 100 µM
TGI [23]: 26 µM
TGI [24]: > 100 µM
TGI [25]: 65.4 µM
TGI [26]: 34.5 µM
TGI [27]: 54.1 µM
TGI [28]: > 100 µM
TGI [29]: > 100 µM
TGI [30]: 66.8 µM
TGI [31]: 63.3 µM
TGI [33]: > 100 µM
TGI [34]: 98.2 µM
TGI [35]: 51.2 µM
TGI [36]: > 100 µM
TGI [37]: 72.3 µM
TGI [38]: > 100 µM
TGI [39]: > 100 µM
TGI [40]: > 100 µM
TGI [41]: 35.7 µM
TGI [42]: > 100 µM
TGI [43]: > 100 µM
TGI [44]: 43 µM
TGI [45]: 39.5 µM
TGI [46]: 82.2 µM
TGI [47]: > 100 µM
TGI [48]: 74.8 µM
TGI [57]: > 100 µM
TGI [49]: 42.3 µM
TGI [50]: 59.8 µM
TGI [51]: > 100 µM
TGI [58]: 24.5 µM
TGI [52]: > 100 µM
TGI [59]: 45.2 µM

— PubChem BioAssay (NCI)
